Measurements published in patent US20230098111A1, “COMPOSITIONS AND METHODS TO TREAT NEUROLOGICAL DISEASES” (University of Southern California, priority 2020, published 2023).

Legend:
[1] = test system: TARDBP iNs; experiment: Survival of TARDBP FTD iNs; type: cell-based, human; settings: DMSO or apilimod
Excerpt: (§1) (A) Survival of C9ORF72 iNs with DMSO or apilimod. Log-rank test, 100 iNs per group. […] Log-rank test, 100 iNs per group. […] Mean+/−s.e.m. Kruskal-Wallis Test.
Thus, a collection of MAPT, C9ORF72, and TARDBP FTD lines that provide relevant models of FTD were established.

[2] = test system: TDP-43; experiment: TDP-43 localization in C9ORF72 iNs; type: cell-based, human; settings: DMSO or apilimod
Excerpt: as §1

[3] = test system: C9-FTD iNs; experiment: Exosome secretion from iNs; type: cell-based, human
Excerpt: (A) […] of exosomes from apilimod-treated C9-FTD iNs. (B) Western blot of TSG101, TDP-43, and Neurofilament heavy chain levels in the exosome fraction secreted from control or C9-FTD iNs upon apilimod treatment. (C,D) Quantification of the exosome marker TSG101 (C) or TDP-43 (D) in the exosome fraction of control and C9-FTD iNs treated with DMSO, apilimod, or apilimod+GW4869. Kruskal-Wallis test for B, C. N=3 biological replicates per condition, one line per genotype. (E) Number of poly(GR)-GFP+ exosomes secreted from iNs expressing exogenous poly(GR)-GFP upon DMSO or apilimod treatment. N=4 biological replicates. Exosomes were labeled with CFSE-red dye to enable detection by FACS. Unpaired t-test.
To test this, exosome release from iNs upon PIKFYVE inhibition was examined. […] Thus, PIKFYVE inhibition induces the secretion of TDP-43 and C9ORF72 DPRs from iNs
PIKFYVE inhibition rescues neurodegeneration through secretory autophagy.

[4] = test system: C9ORF72 dipeptide repeat proteins; experiment: DPR levels in C9ORF72-BAC mice; type: in vivo
Experimental: DRP aggregates (Poly(GR) red) accumulate in the cells (white outline) of C9-BAC mice.
(A) Mass spectrometry analysis of Optineurin (OPTN) levels in the cerebrospinal fluide (CSF) of mice 2 hours after direct intracerebroventral injection of a vehicle control or apilimod. n=3 mice per group. The ratio of Optineurin in the CSF of apilimod:vehicle-injected mice is shown. (B) Poly(GR)+ DPR punctae in wild-type or C9ORF72 mice treated with intracerebroventricular injection of apilimod for 48 hours. Mean+/−s.e.m. Data points are individual neurons taken across 3 mice per group. One-way ANOVA. […] Unpaired t-test. (D) Pikfyve qRT-PCR of whole brain. n=3 mice per group at postnatal day 7. Unpaired t-test. (E) Gait impairment scoring in wild-type (WT) and TDP-43 homozygous mice treated with a negative control (NC) ASO or Pikfyve ASO at postnatal day 1. Mean+/−s.e.m. Unpaired t-test at each time point between the negative control and Pikfyve ASO conditions for TDP-43 mice. A score of 0 indicates no phenotype and 4 indicates the most severe phenotype. (F) Vehicle or GW4869 were delivered by intraperitoneal injection every 48 h starting from day 6 in negative control and Pikfyve ASO-treated mice. Mean+/−s.e.m. One-way ANOVA at each time point between the four conditions. *p<0.05, **p<0.01, ***p<0.001, ****p<0.0001.
PIKFYVE inhibition rescues neurodegeneration in vivo. […] Since TARDBP overexpressing mice show motor deficits and neurodegeneration, we used TARDBP mice to test the efficacy of Pikfyve suppression.
Determining whether PIKfyve-targeting ASOs can reverse ALS disease progression in vivo. To determine if PIKfyve-targeting ASOs can reverse ALS disease processes in vivo, can PIKfyve ASOs lower levels of C9ORF72 dipeptide repeat proteins in mice. Dipeptide repeat proteins are generated from the C9ORF72 repeat expansion by repeat-associated non-AUG-dependent translation and are neurotoxic.
To determine if ASO-mediated Pikfyve suppression lowers C9ORF72 poly(GR) levels in mice, Pikfyve ASOs were injected into the hippocampus of adult C9ORF72-BAC mice, which harbor a C9ORF72 repeat expanded transgene and accumulate poly(GR)+ aggregates in hippocampal neurons.

[5] = test system: TDP-43; experiment: Nuclear:cytoplasmic TDP-43 in C9ORF72 ALS/FTD iMNs; type: cell-based, human; settings: DMSO or apilimod
[6] = test system: TDP-43; experiment: Nuclear:cytoplasmic TDP-43 in sporadic ALS iMNs; type: cell-based, human; settings: DMSO or apilimod
[7] = test system: Drosophila larvae expressing GR dipeptide repeats; experiment: NMJ degeneration in poly(GR) Drosophila ALS model; type: in vivo
Experimental: Apilimod (30 μM) was fed to control and larvae expressing 100× (A,C) or 36× (B,D) GR dipeptide repeats. […] Unpaired t-test. **p<0.01, ***p<0.001.
Testing the efficacy of PIKFYVE suppression in vivo. The fruit fly Drosophila is a powerful genetic system for studying the effects of ALS gene products on neuromuscular junction (NMJ) function. […] It was shown that overexpression of wild-type or mutant TDP-43, SOD1, or the C9ORF72 repeat expansion in Drosophila larvae causes neurodegeneration and an increase in the time required for larvae to right themselves after being turned on their dorsal side, reflecting a decrease in motor function (FIG. 30A-C). […] Overexpression of the C9ORF72 DPR poly(GR)(36 or 100 repeats) causes a dramatic reduction in synaptic arborization, active zone number, and synaptic strength at NMJs (FIG. 31A-D).

[8] = test system: control iMNs
Experimental: Drug screening iMNs from both C90RF72 and sporadic ALS patients. […] Chemical screens were then performed to search for targets that can rescue the degeneration of iMNs from multiple patients. 2000 approved drugs and 1800 target-annotated tool compounds were screened on C9ORF72 ALS/FTD iMNs.

[9] = test system: sporadic ALS iMNs; experiment: Survival of sporadic ALS iMNs
Excerpt: (A) Survival of control (CTRL) and C9ORF72 ALS/FTD patient (C9-ALS) iMNs with a 12-hour pulse treatment of excess glutamate shown for each individual line separately. iMNs quantified from 3 independent iMN conversions per line. (B-D) Immunofluorescence analysis of total TDP-43 (B) and quantification of the ratio of nuclear to cytoplasmic TDP-43 in control, C9-ALS (C), or sporadic ALS (D) iMNs. MNs from 2 controls and 2 C9-ALS patients (C) or 4 sporadic ALS patients (D) were quantified. n=30 (controls), 30 (C9-ALS/FTD), or 36 (sporadic) iMNs per line per condition from 2 biologically independent iMN conversions of 2 control, 2 C9-ALS/FTD, or 4 sporadic ALS lines were quantified. Each gray circle represents a single iMN. Median±interquartile range. Unpaired Mann-Whitney test. Scale bars: 5 μm. Dotted lines outline the nucleus and cell body. (E) Survival of control and sporadic iMNs with glutamate treatment. iMNs quantified from 3 independent iMN conversions per line. For iMN survival experiments, significance was measured by 2-sided log-rank test using the entire survival time course.
(B) Survival of C9-ALS/FTD iMNs with DMSO or apilimod. (C) Survival of sporadic ALS induced motor neurons (iMNs) with DMSO or apilimod. (D) Survival of C9-ALS/FTD iMNs with a scrambled ASO or PIKFYVE ASOs, 100 iMNs per group. […] Unpaired t-test. iMN survival experiments analyzed by log-rank test. […]

[10] = injection of apilimod into the hippocampus
[11] = apilimod 30 μM fed to larvae expressing poly(GR)
[12] = apilimod 30 μM fed to larvae expressing poly(GR), listed as Apilimod

## Cc1cccc(/C=N/Nc2cc(N3CCOCC3)nc(OCCc3ccccn3)n2)c1 [apilimod]
[1]
  survival of TARDBP iNs: potently rescued
[2]
  TDP-43 mislocalization in C9ORF72 iNs: rescued TDP-43 mislocalization
[3]; electron microscopy and western blotting
  release of TSG101+ exosomes from iNs: increased release of TSG101+ exosomes
[3]; iNs expressing poly(GR)50-GFP, FACS of CFSE-labelled exosomes
  poly(GR)-GFP+ exosomes released from iNs: released significantly more poly(GR)-GFP+ exosomes
[3]; western blot of exosome fraction
  TDP-43 in exosomes from C9ORF72 FTD iNs: contained high levels of TDP-43
[4]; [10]
  levels of poly(GR) in C9ORF72-BAC mice: reduced levels
  levels of poly(PR) in C9ORF72-BAC mice: reduced levels
[4]; intracerebroventricular injection of apilimod
  DPR levels in C9ORF72-BAC mice: lowered DPR levels
[5]
  nuclear localization of TDP-43 in C9ORF72 iMNs: rescued the nuclear localization of TDP-43
[6]
  nuclear localization of TDP-43 in sporadic ALS iMNs: rescued the nuclear localization of TDP-43
[7]; apilimod 30 μM
  NMJ degeneration: suppresses NMJ degeneration
[7]; [11]
  NMJ boutons: More active zones and NMJ boutons
  number of active zones at NMJ: More active zones
  synaptic strength (EPSP amplitude): enhanced synaptic strength
[7]; [12]
  number of active zones at NMJ: partially rescues
  synaptic strength (EPSP amplitude): partially rescues
[8]
  control iMN survival: did not
[9]
  sporadic ALS iMN survival: one of the most potent
